# Assay results as given in patent publication US20040106802A1, “Novel compounds and therapeutic uses thereof” (TORRENT PHARMACEUTICALS LTD., priority 2002, published 2004).
# Counter-ions that a name gives are not always drawn.
# Molecular target: T1, Porcine DPP-IV (Sus scrofa, UniProt P22411)
# T1 construct: purchased Sigma-Aldrich Germany
# Experiment: Assay of DPP-IV enzyme inhibitory activity (spectrophotometric, Gly-Pro-pNA cleavage)
# Format: biochemical
# Settings: Porcine DPP-IV, Gly-Pro-pNA substrate, 30° C.; mean ± SD of three experiments except compound Nos. 133 & 139; read-out: IC50 (μM) Mean ± SD, inhibitory activity on DPP-IV enzyme activity
# Protocol: Assay of DPP-IV Enzyme Inhibitory Activity.
# The assay method is a modified method (as described by Welch et al, 1998) based on spectrophotometric determination of the product formed by penultimate proline cleaving activity of the enzyme.
# Assay protocol involves incubation of the enzyme dipeptidyl peptidase IV with the test substance at 30° C. for 30 min followed by addition of this reaction mixture to the substrate Gly-Pro-pNA that was equilibrated at 30° C. for 2 min. The enzyme cleaves the substrate at penultimate proline and releases p-nitroanilide, the optical density of which is measured at 385 nm. The formation of p-nitroanilide will be reduced in the presence of inhibitor. […] The activity of molecule is expressed in terms of % inhibition. At least three different concentrations were tried out for each of the test substances. The percentage inhibitions for each of the concentrations were plotted and an IC50 of the test compound was worked out. The enzyme inhibitory activity of different test compounds were compared based on the IC50 values.
# The percentage inhibition % I, is calculated using the formula:
# % I=[(1−vi/v0)]*100 where vi and v0 are the Vmax values with and without the test substance, respectively.
# Substrate solution: 0.5 mM in 45 mM phosphate buffer
# Substrate used: Gly-Pro-p-nitroanilide (Source: Sigma-Aldrich Co. Germany)
# 3.288 mg substrate in 1 ml 45 mM phosphate buffer was prepared as stock solution. 0.25 ml of this stock solution was diluted to 5 ml to get 0.5 mM substrate solution (90 μl to be added in each well). The stock solution of the substrate was used within three days of preparation.
# Enzyme solution: Porcine DPP-IV (Sigma-Aldrich Germany) was used throughout the study. 0.4 mU in 80 μl of Tris. HCl buffer was prepared. Fresh solutions were prepared everyday for the assays.
# Various concentrations of inhibitor were used: 0.391 μM, 0.781 μM, and 3.125 μM. Solutions of inhibitor were prepared and used on the same day.
# 280 μl of enzyme solution (0.4-mU/80 μl in Tris HCl buffer) was added to the eppendorf containing 70 μl solution of inhibitor or vehicle and mixed. This reaction mixture was incubated for 30 min at 30° C. The 96 well plate containing substrate solution was thermally equilibrated in the spectrophotometer for 2 min at 30° C. Later 100 μl of the enzyme-inhibitor pre-incubation solution was added to respective wells in a 96 well plate. Each concentration of the inhibitor was tested in triplicates.
# The rate of change in UV absorbance (in presence of various concentrations of the inhibitor) was measured at 385 nm, with respect to wells containing only 0.5 mM substrate in 45 mM phosphate buffer as blank at every 10 min for 2 hours after adding enzyme-inhibitor mixture to wells containing substrate solution.
# T1 sequence (P22411 whole entry): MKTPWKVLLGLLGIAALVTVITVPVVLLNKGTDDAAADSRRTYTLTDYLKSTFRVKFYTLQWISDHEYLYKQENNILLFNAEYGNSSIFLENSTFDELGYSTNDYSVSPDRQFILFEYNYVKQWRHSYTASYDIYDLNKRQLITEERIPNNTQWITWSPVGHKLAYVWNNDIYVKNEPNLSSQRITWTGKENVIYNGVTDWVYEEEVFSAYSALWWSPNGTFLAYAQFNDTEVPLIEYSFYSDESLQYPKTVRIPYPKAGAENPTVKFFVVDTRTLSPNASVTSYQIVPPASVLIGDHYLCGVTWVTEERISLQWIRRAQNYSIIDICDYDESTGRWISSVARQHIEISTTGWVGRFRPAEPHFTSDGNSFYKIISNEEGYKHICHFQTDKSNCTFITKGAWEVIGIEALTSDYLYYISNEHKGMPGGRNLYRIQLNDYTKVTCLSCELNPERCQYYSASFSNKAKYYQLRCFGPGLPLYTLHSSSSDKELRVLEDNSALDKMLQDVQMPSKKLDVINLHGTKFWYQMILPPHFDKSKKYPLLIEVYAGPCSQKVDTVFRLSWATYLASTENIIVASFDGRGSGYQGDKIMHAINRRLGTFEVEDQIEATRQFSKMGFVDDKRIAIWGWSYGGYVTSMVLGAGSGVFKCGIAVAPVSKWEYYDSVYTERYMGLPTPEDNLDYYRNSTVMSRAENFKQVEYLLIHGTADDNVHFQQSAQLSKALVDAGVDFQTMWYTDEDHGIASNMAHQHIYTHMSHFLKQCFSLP
row,Structure (SMILES),IC50
1,"N#CC1CCCN1C(=O)CN(N)c1ccccc1 (stereo not drawn) [Compound No. 3, 1-[1-Oxo-2-((1-phenyl)-hydrazino)] ethyl-2-cyano pyrrolidine trifluoroacetate]",34.1 ± 4.57 µM
2,"N#CC1CCCN1C(=O)CNN (stereo not drawn) [Compound No. 4, 1-[1-Oxo-2-(1-hydrazino)]ethyl-2-cyano pyrrolidine trifluoroacetate]",88.6 ± 18.1 µM
3,"N#CC1CSCN1C(=O)CN(N)c1ccccc1 (stereo not drawn) [Compound No. 9, 3-[1-Oxo-2-((1-phenyl)hydrazino)]ethyl-4-cyano Thiazolidine Trifluoroacetate]",6.18 ± 0.88 µM
4,"CC(C)CN(N)CC(=O)N1CCCC1C#N (stereo not drawn) [Compound No. 10, 1-[1-Oxo-2-(1-(2-methylpropyl)hydrazino)]ethyl-2-cyano pyrrolidine trifluoroacetate]",69.8 ± 17.5 µM
5,"CC(C)N(N)CC(=O)N1CCCC1C#N (stereo not drawn) [Compound No. 12, 1-[1-Oxo-2-((1-(1-methyl)ethyl)hydrazino)]ethyl-2-cyano pyrrolidine trifluoroacetate]",61.3 ± 4.55 µM
6,"CCN(CC)NCC(=O)N1CSCC1C#N (stereo not drawn) [Compound No. 13, 1-[1-Oxo-2-((2,2-diethyl)-hydrazino)]ethyl-2-cyano thiazolidine]",57.1 ± 3.76 µM
7,"CCN(N)CC(=O)N1CCCC1C#N (stereo not drawn) [Compound No. 14, 1-[1-Oxo-2-((1-ethyl)hydrazino)]ethyl-2-cyano pyrrolidine trifluoroacetate]",93.7 ± 5.54 µM
8,"N#CC1CSCN1C(=O)CNN (stereo not drawn) [Compound No. 15, 3-[1-Oxo-2-(1-hydrazino)]ethyl-4-cyano thiazolidine trifluoroacetate]",41.9 ± 11.6 µM
9,"N#CC1CSCN1C(=O)CN(N)Cc1ccccc1 (stereo not drawn) [Compound No. 16, 3-[1-Oxo-2-((1-phenylmethyl)hydrazino)]ethyl-4-cyano thiazolidine trifluoroacetate]",9.29 ± 0.64 µM
10,"N#CC1CSCN1C(=O)CN(N)Cc1ccc([N+](=O)[O-])cc1 (stereo not drawn) [Compound No. 17, 3-[1-Oxo-2-((1-(4-nitrophenylmethyl))hydrazino)]ethyl-4-cyano thiazolidine trifluoroacetate]",35.8 ± 1.03 µM
11,"N#CC1CCCN1C(=O)CN(N)C1CCCC1 (stereo not drawn) [Compound No. 18, 1-[1-Oxo-2-((1-Cyclopentyl)-hydrazino)]ethyl-2-cyano pyrrolidine trifluoroacetate]",32.1 ± 1.65 µM
12,"N#CC1CCCN1C(=O)CN(N)C1CCCCC1 (stereo not drawn) [Compound No. 20, 1-[1-Oxo-2-((1-Cyclohexyl)-hydrazino)]ethyl-2-cyano pyrrolidine trifluoroacetate]",33.7 ± 0.99 µM
13,"CCC(C)N(N)CC(=O)N1CCCC1C#N (stereo not drawn) [Compound No. 22, 1-[1-Oxo-2-((1-methylpropyl)hydrazino)]ethyl-2-cyano pyrrolidine trifluoroacetate]",76.5 ± 7.51 µM
14,"CCC(C)N(N)CC(=O)N1CSCC1C#N (stereo not drawn) [Compound No. 23, 3-[1-Oxo-2-((1-methylpropyl)hydrazino)]ethyl-4-cyano thiazolidine trifluoroacetate]",2.94 ± 0.15 µM
15,"CC1CCC(NNCC(=O)N2CCCC2C#N)CC1 (stereo not drawn) [Compound No. 26, 1-[1-Oxo-2-((4-Methyl)cyclohexyl)hydrazino)]ethyl-2-cyano pyrrolidine trifluoroacetate]",10 ± 0.79 µM
16,"N#CC1CCCN1C(=O)CN(N)c1ccccn1 (stereo not drawn) [Compound No. 27, 1-[1-Oxo-2-(1-(2-Pyridyl)-hydrazino)]ethyl-2-cyano pyrrolidine bis-trifluoroacetate]",43 ± 2.76 µM
17,"N#CC1CSCN1C(=O)CN(N)C1CCCCCC1 (stereo not drawn) [Compound No. 28, 3-[1-Oxo-2-((1-Cycloheptyl)-hydrazino)] ethyl-4-cyano thiazolidine trifluoroacetate]",2.29 ± 0.11 µM
18,"N#CC1CCCN1C(=O)CN(N)C1CCCCCC1 (stereo not drawn) [Compound No. 30, 1-[1-Oxo-2-((1-Cycloheptyl)-hydrazino)]ethyl-2-cyano pyrrolidine trifluoroacetate]",35.1 ± 2.66 µM
19,"N#CC1CCCN1C(=O)CNNC1CCCCC1 (stereo not drawn) [Compound No. 34, 1-[1-Oxo-2-(2-cyclohexyl) hydrazino] ethyl-2-cyanopyrrolidine trifluoroacetate]",30.3 ± 5.5 µM
20,"CC1CCC(NNCC(=O)N2CCCC2C#N)CC1 (stereo not drawn) [Compound No. 37, 1-[1-Oxo-2-(4-methylcyclohexyl)hydrazino]ethyl-2-cyanopyrrolidine trifluoroacetate]",28.3 ± 4.6 µM
21,"CC(C)N(N)CC(=O)N1CCCC1C#N (stereo not drawn) [Compound No. 41, 1-[1-Oxo-2-isopropyl-2-hydrazino]ethyl-2-cyano pyrrolidine trifluoroacetate]",48.3 ± 1.75 µM
22,N#CC1CSCN1CC(=O)NN(CC(=O)N1CCCC1C#N)C1CCCCC1 (stereo not drawn) [Compound No. 50],60.1 ± 5.5 µM

# Next, values leading:
row,IC50,Structure (SMILES)
1,217 ± 9.07 µM,"N#CC1CSCN1C(=O)CN(N)C1CCN(CC(=O)NC2CC2)CC1 (single isomer, unassigned) [compound 146, 3-[1-oxo-2-(1-(1-(2-cyclopropyl-1-yl)aminoethyl)piperidin-4-yl)) hydrazino]ethyl-4-cyano thiazolidine, dihydrochloride]"
2,23.3 ± 2.54 µM,"CC(C)NN(CC(=O)N1CSCC1C#N)C1CCCCC1 (stereo not drawn) [Compound No. 36, 3-[1-Oxo-2-(1-cyclohexyl-2-isopropyl) hydrazino]ethyl-4-cyanothiazolidine hydrochloride]"
3,96.9 ± 23 µM,"CC(C)NN(CC(=O)N1CCCC1C#N)C1CCCCC1 (stereo not drawn) [Compound No. 38, 1-[1-Oxo-2-(1-cyclohexyl-2-isopropyl)hydrazino]ethyl-2-cyano pyrrolidine]"
4,50.4 ± 4.59 µM,"CC1CCC(CN(N)CC(=O)N2CCCC2C#N)CC1 (stereo not drawn) [Compound No. 39, 1-[1-Oxo-2-(1-(4-methylcyclohexylmethyl)hydrazino)]ethyl-2-cyanopyrrolidine trifluoroacetate]"
5,0.53 ± 0.09 µM,"CCNN(CC(=O)N1CSCC1C#N)C1CCC(C)CC1 (stereo not drawn) [Compound No. 42, 3-[1-Oxo-2-(1-(4-methylcyclohexyl)-2-ethyl)hydrazino]ethyl-4-cyanothiazolidine trifluoroacetate]"
6,38.2 ± 2.56 µM,"N#CC1CSCN1C(=O)CN(N)C(=O)N1CCOCC1 (stereo not drawn) [Compound No. 43, 3-[1-Oxo-2-(1-(4-morpholinocarbonyl) hydrazino)ethyl]-4-cyanothiazolidine trifluoroacetate]"
7,2.86 ± 0.18 µM,"CC1CCC(N(CC(=O)N2CSCC2C#N)NC(C)C)CC1 (stereo not drawn) [Compound No. 44, 3-[1-Oxo-2-(1-(4-methylcyclohexyl)-2-isopropyl)hydrazino]ethyl-4-cyanothiazolidine trifluoroacetate]"
8,44 ± 1.92 µM,"N#CC1CCCN1CC(=O)NN(CC(=O)N1CCCC1C#N)C1CCCCC1 (stereo not drawn) [Compound No. 45, 1-[1-Oxo-2-[(1-cyclohexyl)-2-(2-cyano-1-pyrrolidinoacetyl)]hydrazino]ethyl-2-cyanopyrrolidine trifluoroacetate]"
9,78.6 ± 4.58 µM,"N#CC1CSCN1C(=O)CN(NC(=O)NCCc1ccccn1)C(=O)NCCc1ccccn1 (stereo not drawn) [Compound No. 46, 3-[1-Oxo-2-(1,2-bis-(2-(2-pyridyl)ethylaminocarbonyl)hydrazino)]ethyl-4-cyano thiazolidine bis trifluoroacetate]"
10,1.14 ± 0.09 µM,"CC(C)(C)C1CCC(N(N)CC(=O)N2CSCC2C#N)CC1 (stereo not drawn) [Compound No. 47, 3-[1-Oxo-2-(1-(4-tert-butylcyclohexyl)hydrazino)]ethyl-4-cyanothiazolidine trifluoro acetate]"
11,45.2 ± 1.21 µM,"N#CC1CCCN1C(=O)CN(N)C1CCCc2ccccc21 (stereo not drawn) [Compound No. 48, 1-[1-Oxo-2-(1-tetralinyl)hydrazino]ethyl-2-cyanopyrrolidine trifluoroacetate]"
12,1.04 ± 0.25 µM,"CC(C)(C)C1CCC(N(N)CC(=O)N2CSCC2C#N)CC1 (stereo not drawn) [Compound No. 49, 3-[1-Oxo-2-(1-(4-tertbutylcyclohexyl)hydrazino)]ethyl-4-cyanothiazolidine trifluoroacetate]"
13,3.5 ± 0.06 µM,"CC(C)N1CCC(N(N)CC(=O)N2CSCC2C#N)CC1 (stereo not drawn) [Compound No. 51, 3-[1-Oxo-2-(1-isopropyl-4-piperidinyl) hydrazino)]ethyl-4-cyano thiazolidine trifluoroacetate]"
14,16.7 ± 2.07 µM,"CC1CCC(N(CC(=O)N2CSCC2C#N)NC2CCN(Cc3cccnc3)CC2)CC1 (stereo not drawn) [Compound No. 53, 3-[1-Oxo-2-[1-(4-methylcyclohexyl)-2-(1-(3-pyridinylmethyl)-4-piperidinyl)]hydrazino]ethyl-4-cyanothiazolidine]"
